Measured values reported in ChEMBL document CHEMBL5500339, “4-Hydroxy-2-pyridone derivatives with antitumor activity produced by mangrove endophytic fungus Talaromyces sp. CY-3” (Eur J Med Chem, 2024).
Calls of active or inactive are those of the source. The rule behind the calls is not given here.

Assays:
A549 [1] = assay: Cytotoxicity against human A549 cells assessed as reduction in cell viability incubated for 48 hrs by MTT assay; assay type: functional, cell-based; conditions: A549, 48 h
MDA-MB-435 = assay: Cytotoxicity against human MDA-MB-435 cells assessed as reduction in cell viability incubated for 48 hrs by MTT assay; assay type: functional, cell-based; conditions: MDA-MB-435, 48 h
SNB-19 = assay: Cytotoxicity against human SNB-19 cells assessed as reduction in cell viability incubated for 48 hrs by MTT assay; assay type: functional, cell-based; conditions: SNB-19, 48 h
4T1 = assay: Cytotoxicity against mouse 4T1 cells assessed as reduction in cell viability incubated for 48 hrs by MTT assay; assay type: functional, cell-based; conditions: 4T1, 48 h
MC-38 = assay: Cytotoxicity against mouse MC38 cells assessed as reduction in cell viability incubated for 48 hrs by MTT assay; assay type: functional, cell-based; conditions: MC-38, 48 h
Hepa 1-6 = assay: Cytotoxicity against mouse Hepa1-6 cells assessed as reduction in cell viability incubated for 48 hrs by MTT assay; assay type: functional, cell-based; conditions: Hepa1-6, 48 h
A549 [2] = assay: Inhibition of colony formation in human A549 cells at 10 uM incubated for 7 days by crystal violet staining analysis; assay type: functional, cell-based; conditions: time 7.0 day
A549 [3] = assay: Inhibition of colony formation in human A549 cells at 20 uM incubated for 7 days by crystal violet staining analysis; assay type: functional, cell-based; conditions: time 7.0 day
NCI-H1703 [4] = assay: Inhibition of colony formation in human NCI-H1703 cells at 5 uM incubated for 7 days by crystal violet staining analysis; assay type: functional, cell-based; conditions: time 7.0 day
A549 [5] = assay: Antiproliferative activity against human A549 cells assessed as inhibition of cell growth at 10 uM incubated for 24 hrs by MTT assay; assay type: functional, cell-based
A549 [6] = assay: Antiproliferative activity against human A549 cells assessed as inhibition of cell growth at 20 uM incubated for 24 hrs by MTT assay; assay type: functional, cell-based
NCI-H1703 [7] = assay: Induction of cell cycle arrest in human NCI-H1703 cells assessed as accumulation of cells at S phase at 5 uM incubated for 24 hrs by flow cytometric analysis (reference value: 28.06 %); assay type: functional
NCI-H1703 [8] = assay: Induction of cell cycle arrest in human NCI-H1703 cells assessed as downregulation of CyclinD1 protein expression incubated for 24 hrs by Western blotting analysis; assay type: functional, cell-based
A549 [9] = assay: Induction of cell cycle arrest in human A549 cells assessed as downregulation of Rb phosphorylation at Ser807/811 residue at 20 uM incubated for 24 hrs by Western blotting analysis; assay type: functional, cell-based
NCI-H1703 [10] = assay: Induction of cell cycle arrest in human NCI-H1703 cells assessed as downregulation of Rb phosphorylation at Ser807/811 residue at 10 uM incubated for 24 hrs by Western blotting analysis; assay type: functional, cell-based

`C/C=C/[C@@H]1[C@H]2C[C@@H](C)CC[C@@H]2C(C)=C[C@H]1C(=O)c1c(O)c(-c2ccc(O)cc2)c[nH]c1=O` [ILICICOLIN H] gave an IC50 (A549 [1]) of 7.01 µM, an IC50 (MDA-MB-435) of 6.34 µM and an IC50 (SNB-19) of 14.6 µM. The IC50 (4T1) was 13.8 µM, the IC50 (MC-38) was 19.6 µM and the IC50 (Hepa 1-6) was 19.6 µM. The inhibition (A549 [2]) was “Active”, the inhibition (A549 [3]) was “Active” and the inhibition (NCI-H1703 [4]) was “Active”. For the same molecule, the Activity (A549 [5]) was “Active”, the Activity (A549 [6]) was “Active” and the Activity (NCI-H1703 [7]) was 23.26%. The Activity (NCI-H1703 [8]) was “Dose-Dependent Effect”, the Activity (A549 [9]) was “Active” and the Activity (NCI-H1703 [10]) was “Active”.
